Values after ≈ are worked out from the molar mass of the structure shown.
Key:
[1] = biological target: T1, UDP-3-O-acyl-N-acetylglucosamine deacetylase (Escherichia coli K-12, UniProt P0A725); assay: Inhibition of Escherichia coli LpxC
T1 sequence (P0A725 whole entry): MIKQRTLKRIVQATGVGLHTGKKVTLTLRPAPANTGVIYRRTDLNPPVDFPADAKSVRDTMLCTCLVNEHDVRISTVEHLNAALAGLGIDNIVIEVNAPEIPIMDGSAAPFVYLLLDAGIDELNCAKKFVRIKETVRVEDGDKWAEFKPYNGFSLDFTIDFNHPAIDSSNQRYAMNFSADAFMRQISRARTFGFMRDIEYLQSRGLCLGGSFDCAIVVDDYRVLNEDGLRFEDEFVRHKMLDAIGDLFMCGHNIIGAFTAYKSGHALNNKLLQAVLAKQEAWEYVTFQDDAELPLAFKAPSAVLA

[2] = tested on: Escherichia coli; assay: Antimicrobial activity against Escherichia coli HS294 by broth dilution assay; format: functional
[3] = tested on: Escherichia coli; assay: Antimicrobial activity against Escherichia coli ATCC 25922 by broth dilution assay; format: functional
[4] = tested on: Escherichia coli; assay: Antimicrobial activity against wild type Escherichia coli by broth dilution assay; format: functional
[5] = tested on: Escherichia coli; assay: Antimicrobial activity against multidrug-resistant Escherichia coli by broth dilution assay; format: functional
[6] = tested on: Escherichia coli; assay: Antimicrobial activity against ESBL producing Escherichia coli by broth dilution assay; format: functional
[7] = tested on: Pseudomonas aeruginosa; assay: Antimicrobial activity against wild type Pseudomonas aeruginosa by broth dilution assay; format: functional
[8] = tested on: Pseudomonas aeruginosa; assay: Antimicrobial activity against multidrug-resistant Pseudomonas aeruginosa by broth dilution assay; format: functional
[9] = tested on: Klebsiella pneumoniae; assay: Antimicrobial activity against wild type Klebsiella pneumoniae by broth dilution assay; format: functional
[10] = tested on: Klebsiella pneumoniae; assay: Antimicrobial activity against ESBL producing Klebsiella pneumoniae by broth dilution assay; format: functional
[11] = tested on: Proteus vulgaris; assay: Antimicrobial activity against wild type Proteus vulgaris by broth dilution assay; format: functional
[12] = tested on: Serratia marcescens; assay: Antimicrobial activity against wild type Serratia marcescens by broth dilution assay; format: functional
[13] = tested on: Klebsiella aerogenes; assay: Antimicrobial activity against wild type Enterobacter aerogenes by broth dilution assay; format: functional
[14] = tested on: Enterobacter cloacae; assay: Antimicrobial activity against ESBL producing Enterobacter cloacae by broth dilution assay; format: functional
[15] = tested on: Acinetobacter calcoaceticus; assay: Antimicrobial activity against wild type Acinetobacter calcoaceticus by broth dilution assay; format: functional
[16] = tested on: Acinetobacter baumannii; assay: Antimicrobial activity against wild type Acinetobacter baumannii by broth dilution assay; format: functional
[17] = tested on: Stenotrophomonas maltophilia; assay: Antimicrobial activity against wild type Stenotrophomonas maltophilia by broth dilution assay; format: functional

## CCCc1cc(C2=N[C@@H](C(=O)NO)CO2)cc(OC)c1OC
[1]
  Ki: 50 nM

## C[C@@H](O)[C@H](C(=O)NO)N1Cc2cc(C#Cc3ccc(-c4ccccc4)cc3)ccc2C1=O
[1]
  IC50: 13 nM

## C[C@@H](O)[C@@H](NC(=O)c1ccc(C#Cc2ccccc2)cc1)C(=O)NO
[2]
  MIC: 0.02 µg/mL (≈ 0.0591 µM)
[3]
  MIC: 0.08 µg/mL (≈ 0.236 µM)
[4]
  MIC: 0.16 µg/mL (≈ 0.473 µM)
[5]
  MIC: 0.63 µg/mL (≈ 1.86 µM)
[6]
  MIC: 0.313 µg/mL (≈ 0.925 µM)
[7]
  MIC: 10 µg/mL (≈ 29.6 µM)
[8]
  MIC: 0.63 µg/mL (≈ 1.86 µM)
[9]
  MIC: 1.25 µg/mL (≈ 3.69 µM)
[10]
  MIC: 0.63 µg/mL (≈ 1.86 µM)
[11]
  MIC: 1.25 µg/mL (≈ 3.69 µM)
[12]
  MIC: 1.25 µg/mL (≈ 3.69 µM)
[13]
  MIC: 2.5 µg/mL (≈ 7.39 µM)
[14]
  MIC: 0.31 µg/mL (≈ 0.916 µM)
[15]
  MIC: 1.25 µg/mL (≈ 3.69 µM)
[16]
  MIC: > 20 µg/mL
[17]
  MIC: 5 µg/mL (≈ 14.8 µM)

## C[C@@H](O)[C@@H](NC(=O)NCCc1ccc(C#Cc2ccccc2)cc1)C(=O)NO
[1]
  IC50: 1270 nM
[2]
  MIC: 50 µg/mL (≈ 131 µM)
[3]
  MIC: > 100 µg/mL

## C[C@@H](O)[C@@H](NC(=O)N1CCN(c2ccc(C#Cc3ccc(C(F)(F)F)cc3)cc2)CC1)C(=O)NO
[1]
  IC50: 10.4 nM
[2]
  MIC: 1.56 µg/mL (≈ 3.18 µM)
[3]
  MIC: 12.5 µg/mL (≈ 25.5 µM)

## C[C@@H](O)[C@@H](NC(=O)N1CCCC(c2ccc(C#Cc3ccccc3)cc2)C1)C(=O)NO (stereo partly specified)
[1]
  IC50: 387 nM
[2]
  MIC: 25 µg/mL (≈ 59.3 µM)
[3]
  MIC: > 100 µg/mL

## C[C@@H](O)[C@H](C(=O)NO)N1Cc2cc(-c3ccc(C#Cc4ccccc4)cc3)ccc2C1=O
[1]
  IC50: 29 nM

## C[C@@H](O)[C@@H](NC(=O)N1CCN(c2ccc(-c3ccc(N4CCOCC4)cc3)cc2)CC1)C(=O)NO
[1]
  IC50: 16.3 nM
[2]
  MIC: 3.13 µg/mL (≈ 6.47 µM)
[3]
  MIC: 6.25 µg/mL (≈ 12.9 µM)

## O=C(N[C@H](CO)[C@H](O)c1ccc([N+](=O)[O-])cc1)C(Cl)Cl [CHLORAMPHENICOL]
[4]
  MIC: 2 µg/mL (≈ 6.19 µM)
[5]
  MIC: > 32 µg/mL
[7]
  MIC: 2 µg/mL (≈ 6.19 µM)
[8]
  MIC: > 256 µg/mL

## C[C@@H](O)[C@@H](NC(=O)N1CCC(C#Cc2ccccc2)CC1)C(=O)NO
[1]
  IC50: 207 nM
[2]
  MIC: 3.13 µg/mL (≈ 9.06 µM)
[3]
  MIC: 25 µg/mL (≈ 72.4 µM)

## C[C@@H](O)[C@H](C(=O)NO)N1Cc2cc(-c3ccccc3)ccc2C1=O
[1]
  IC50: 41000 nM

## C[C@@H](O)[C@@H](NC(=O)N1CCN(c2ccc(C#Cc3ccccn3)cc2)CC1)C(=O)NO
[1]
  IC50: 10 nM
[2]
  MIC: 6.25 µg/mL (≈ 14.8 µM)
[3]
  MIC: > 100 µg/mL

## C[C@@H](O)[C@@H](NC(=O)N1CCN(c2ccc(-c3ccccc3)cc2)CC1)C(=O)NO
[1]
  IC50: 5.6 nM
[2]
  MIC: 0.8 µg/mL (≈ 2.01 µM)
[3]
  MIC: 3.13 µg/mL (≈ 7.86 µM)

## C[C@@H](O)[C@@H](NC(=O)N1CCC(c2ccccc2)CC1)C(=O)NO
[1]
  IC50: 3940 nM
[2]
  MIC: 12.5 µg/mL (≈ 38.9 µM)

## C[C@@H](O)[C@@H](NC(=O)N1CCN(c2ccc(C#Cc3ccc(CC#N)cc3)cc2)CC1)C(=O)NO
[1]
  IC50: 11 nM
[2]
  MIC: 0.8 µg/mL (≈ 1.73 µM)
[3]
  MIC: 6.25 µg/mL (≈ 13.5 µM)

## C[C@@H](O)[C@@H](NC(=O)N1CCN(c2ccc(C#Cc3ccc(O)cc3)cc2)CC1)C(=O)NO
[1]
  IC50: 4 nM
[2]
  MIC: 0.1 µg/mL (≈ 0.228 µM)
[3]
  MIC: 1.56 µg/mL (≈ 3.56 µM)

## C[C@@H](O)[C@@H](NC(=O)N1CCN(c2ccc(C#Cc3ccc(N4CCNCC4)cc3)cc2)CC1)C(=O)NO
[1]
  IC50: 23.3 nM
[2]
  MIC: 0.4 µg/mL (≈ 0.79 µM)
[3]
  MIC: 6.25 µg/mL (≈ 12.3 µM)

## C[C@@H](O)[C@@H](NC(=O)N1CCC(c2cccc(C#Cc3ccccc3)c2)C1)C(=O)NO (stereo partly specified)
[1]
  IC50: 146 nM
[2]
  MIC: 1.56 µg/mL (≈ 3.83 µM)
[3]
  MIC: 100 µg/mL (≈ 245 µM)

## C[C@@H](O)[C@@H](NC(=O)N1CCN(c2ccc(C#Cc3cccnc3)cc2)CC1)C(=O)NO
[1]
  IC50: 63 nM
[2]
  MIC: 12.5 µg/mL (≈ 29.5 µM)
[3]
  MIC: 100 µg/mL (≈ 236 µM)

## C[C@@H](O)[C@@H](NC(=O)N1CCN(c2ccc(-c3cncs3)cc2)CC1)C(=O)NO
[1]
  IC50: 12 nM
[2]
  MIC: 3.13 µg/mL (≈ 7.72 µM)
[3]
  MIC: 100 µg/mL (≈ 247 µM)

## C[C@@H](O)[C@H](C(=O)NO)N1Cc2ccc(C#Cc3ccccc3)cc2C1=O
[1]
  IC50: 34000 nM

## C[C@@H](O)[C@@H](NC(=O)N1CCN(c2ccc(C#Cc3ccc(F)cc3)cc2)CC1)C(=O)NO
[1]
  IC50: 7 nM
[2]
  MIC: 0.8 µg/mL (≈ 1.82 µM)
[3]
  MIC: 3.13 µg/mL (≈ 7.11 µM)

## C[C@@H](O)[C@@H](NC(=O)N1CCN(c2ccc(C#Cc3ccc(N)cc3)cc2)CC1)C(=O)NO
[1]
  IC50: 26 nM
[2]
  MIC: 1.56 µg/mL (≈ 3.57 µM)
[3]
  MIC: 3.13 µg/mL (≈ 7.15 µM)

## CCCCCCCCCCCCCC(=O)O[C@@H]1[C@@H](CC(=O)NO)CO[C@H](CO)[C@H]1O
[1]
  Ki: 650 nM

## C[C@@H](O)[C@@H](NC(=O)N1CCN(c2ccc(C#Cc3ccc(CN4CCOCC4)cc3)cc2)CC1)C(=O)NO
[1]
  IC50: 14 nM
[2]
  MIC: 1.56 µg/mL (≈ 2.99 µM)
[3]
  MIC: 6.25 µg/mL (≈ 12 µM)

Source: ChEMBL document CHEMBL1667853, “Design and synthesis of potent Gram-negative specific LpxC inhibitors” (Bioorg Med Chem Lett, 2011)
